Data on 2 compounds can be found in ChEMBL document CHEMBL1139320, “PEG-immobilization of cardol and soluble polymer-supported synthesis of some cardol-coumarin derivatives: preliminary evaluation of their inhibitory activity on mushroom tyrosinase” (Bioorg Med Chem Lett, 2009).

pIC50: −log10 of the molar value.

In this assay the target is T1, Tyrosinase (Agaricus bisporus, UniProt O42713).
T1 sequence (O42713 whole entry): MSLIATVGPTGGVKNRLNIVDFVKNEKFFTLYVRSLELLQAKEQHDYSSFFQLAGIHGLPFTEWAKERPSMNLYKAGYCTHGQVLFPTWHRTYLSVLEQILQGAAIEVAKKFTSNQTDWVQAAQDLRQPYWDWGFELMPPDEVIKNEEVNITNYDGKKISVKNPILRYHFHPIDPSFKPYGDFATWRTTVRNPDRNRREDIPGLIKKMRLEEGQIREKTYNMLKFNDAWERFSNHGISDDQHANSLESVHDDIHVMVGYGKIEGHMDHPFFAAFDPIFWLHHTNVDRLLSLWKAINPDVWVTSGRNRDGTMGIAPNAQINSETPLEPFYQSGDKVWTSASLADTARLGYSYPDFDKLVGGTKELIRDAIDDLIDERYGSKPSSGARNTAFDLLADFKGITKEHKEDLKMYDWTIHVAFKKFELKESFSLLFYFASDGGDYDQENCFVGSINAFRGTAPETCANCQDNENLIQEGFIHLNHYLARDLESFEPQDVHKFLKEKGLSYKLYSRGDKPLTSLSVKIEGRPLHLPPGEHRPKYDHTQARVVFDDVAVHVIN
Description: Inhibition of mushroom tyrosine kinase assessed as oxidation of 0.25 mM L-3,4-dihydroxyphenylalanine

One may read the pIC50 as the negative decadic logarithm of the IC50, by convention in mol/L. A high value points to a low IC50. In turn, `CCCCCCc1ccc(O)cc1O` [HEXYLRESORCINOL] showed a pIC50 of 6.01.

Compound `Oc1cccc(O)c1` [RESORCINOL] gave a pIC50 of 2.84.
